± gives the standard deviation.
Experiments:
[1] = chemical recovery from spiked human plasma; higher = better extraction; settings: pooled human plasma
[2] = chemical recovery into PDMS from spiked human plasma; higher = better extraction; settings: pooled human plasma, extraction method: PES with PDMS
[3] = chemical recovery by SPE of plasma after PDMS sampling; higher = better extraction; settings: pooled human plasma, extraction method: HLB SPE of plasma after PES
[4] = extraction method: PES+SPE (3 d PDMS equilibration then HLB SPE)
[5] = extraction method: SPE only (HLB 96-well)
[6] = extraction method: solvent precipitation (ACN + hexane)
[7] = extraction method: SPE only (HLB 96-well), PES comparison experiment
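Throughout, for chemical recovery by SPE of plasma after PDMS sampling: over 400 spiked chemicals quantified by LC-HRMS or GC-HRMS via internal standard calibration, recovery relative to spike mix added to unspiked plasma extract to correct matrix effects.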

SMILES	chemical recovery [1, 4]	chemical recovery [1, 5]	chemical recovery [1, 6]	chemical recovery into PDMS ([2]; equilibration time (d): 3)	chemical recovery into PDMS ([2]; equilibration time (d): 6)	chemical recovery by SPE of plasma ([3]; equilibration time (d): 1)	chemical recovery by SPE of plasma ([3]; equilibration time (d): 3)	chemical recovery by SPE of plasma ([3]; equilibration time (d): 6)	chemical recovery [1, 7]	chemical recovery into PDMS ([2]; equilibration time (d): 1)
Clc1cc(-c2cc(Cl)c(Cl)c(Cl)c2Cl)c(Cl)c(Cl)c1Cl [PCB194]	38.3 ± 2.4%	0.915 ± 0.53%	2.72 ± 0.18%	54.4 ± 6.3%	63.4 ± 5.4%	3.6 ± 2.3%	5.05 ± 1.1%	2.4 ± 0.65%		
CCNc1nc(Cl)nc(NCC)n1 [Simazine]	47.8 ± 5.9%	43.4 ± 2.3%	60.6 ± 5.9%	35.8 ± 1.3%	38.6 ± 2.5%	9.65 ± 1.2%	7.56 ± 1.3%	4.81 ± 0.55%	48.6 ± 5.5%	30.5 ± 1.1%
c1cc2c3c(c1)ccc1cccc(c13)C2 [4H-Cyclopenta(def)phenanthrene]				93.2 ± 14%	108 ± 43%	1.81 ± 1.4%	2 ± 0.34%	1.85 ± 0.12%	19.6 ± 3.7%	94.4 ± 32%
CC(C)(C#N)c1cc(Cn2cncn2)cc(C(C)(C)C#N)c1 [Anastrozole]	51.4 ± 5.5%	44.4 ± 1.8%	69.1 ± 2.4%	39.8 ± 1.5%	41.8 ± 2.5%	14.8 ± 1.9%	9.48 ± 1.3%	4.8 ± 0.57%	47.9 ± 3.9%	34.8 ± 2.8%
O=C1NCCN1Cc1ccc(Cl)nc1 [Imidacloprid-urea]	51.2 ± 4.7%	43.2 ± 9.1%	77.1 ± 3.8%	10.2 ± 1.7%	11.7 ± 2%	50.1 ± 6.5%	50.2 ± 4.6%	39.3 ± 1.7%	51.1 ± 4.4%	6.18 ± 0.38%
CCNc1nc(Cl)nc(NC(C)C)n1 [Atrazine]	43.7 ± 5.2%	41.5 ± 2.1%	62.9 ± 5.5%	39.1 ± 2.9%	39.4 ± 0.96%	6.06 ± 0.65%	4.12 ± 0.74%	2.39 ± 0.2%	50.6 ± 6.8%	34.5 ± 1.7%
CSc1nnc(C(C)(C)C)c(=O)n1N [Metribuzin]	49.7 ± 7.4%	49 ± 2.9%	71.8 ± 2.9%	25.2 ± 1.9%	29.4 ± 1.2%	10.9 ± 1.3%	15.3 ± 1.4%	10.4 ± 1.8%	54.2 ± 7.9%	25 ± 2.2%
CN(C/C=C/C#CC(C)(C)C)Cc1cccc2ccccc12 [Terbinafine]		46.4 ± 1%	86.4 ± 13%	0.065 ± 0.1%	0.00509 ± 0.0088%	0.265 ± 0.18%	0.2 ± 0.089%	0.0441 ± 0.0079%	50 ± 10%	0.00204 ± 0.0035%
Clc1ccc(Cl)c(-c2cccc(Cl)c2Cl)c1 [PCB44]	44 ± 11%	3.94 ± 0.74%		90.2 ± 12%	99.1 ± 11%	1.35 ± 0.87%	1.34 ± 0.13%	1.42 ± 0.29%	18.4 ± 4%	83.5 ± 2.1%
Clc1ccc(COC(Cn2ccnc2)c2ccc(Cl)cc2Cl)c(Cl)c1 (stereo not drawn) [Miconazole]		43.2 ± 6.1%	85.3 ± 8.5%	34.9 ± 3.2%	31.5 ± 2.8%	0.659 ± 0.14%	0.405 ± 0.14%	0.117 ± 0.082%	40.4 ± 10%	33.6 ± 2.4%
Cc1ccc(S(N)(=O)=O)cc1 [p-Toluenesulfonamide]			77.9 ± 3.1%	1.8 ± 0.5%	2.08 ± 0.47%	51.8 ± 5.5%	55.4 ± 4.7%	52.8 ± 0.84%		2.17 ± 0.29%
CCNc1nc(NCC)nc(SC)n1 [Simetryn]		41.6 ± 3.2%	70.9 ± 3.6%	25.4 ± 8.6%	28.9 ± 5.6%	12.9 ± 2.2%	5.73 ± 0.83%	3.34 ± 0.47%	46.7 ± 4.3%	21.2 ± 8.1%

From the supplement of paper PMC10702517
